Results reported in PubChem BioAssay (NCI).
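Exposure lasted 48 hours, with cells grown in 96-well plates and compounds tested at five concentrations. Abbreviation: GI50, concentration required for 50% inhibition of growth. At the TGI there is no net growth.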

Assays:
Experiment in all cases: NCI anticancer screen, dose series, 48 h
T-47D breast = test system: T-47D breast
OVCAR-5 ovarian = test system: OVCAR-5 ovarian
HS 578T breast = test system: HS 578T breast
UACC-62 melanoma = test system: UACC-62 melanoma
HCT-15 colon = test system: HCT-15 colon
DU-145 prostate = test system: DU-145 prostate
A549 NSCLC = test system: A549 NSCLC
NCI/ADR-RES ovarian = test system: NCI/ADR-RES ovarian
NCI-H460 lung = test system: NCI-H460 lung
LOX IMVI melanoma = test system: LOX IMVI melanoma
NCI-H522 lung = test system: NCI-H522 lung
OVCAR-3 ovarian = test system: OVCAR-3 ovarian
HT29 colon = test system: HT29 colon
MCF7 breast = test system: MCF7 breast
SN12C renal = test system: SN12C renal
EKVX NSCLC = test system: EKVX NSCLC
SW-620 colon = test system: SW-620 colon
HCC-2998 colon = test system: HCC-2998 colon
SF-295 CNS = test system: SF-295 CNS
BT-549 breast = test system: BT-549 breast
MALME-3M melanoma = test system: MALME-3M melanoma
SNB-19 CNS = test system: SNB-19 CNS
UO-31 renal = test system: UO-31 renal
NCI-H226 lung = test system: NCI-H226 lung
CAKI-1 renal = test system: CAKI-1 renal
M14 melanoma = test system: M14 melanoma
SK-MEL-5 melanoma = test system: SK-MEL-5 melanoma
HCT-116 colon = test system: HCT-116 colon
PC-3 prostate = test system: PC-3 prostate
K-562 leukemia = test system: K-562 leukemia
HL-60(TB) leukemia = test system: HL-60(TB) leukemia
IGROV1 ovarian = test system: IGROV1 ovarian
MDA-MB-231 breast = test system: MDA-MB-231 breast
SR leukemia = test system: SR leukemia
OVCAR-8 ovarian = test system: OVCAR-8 ovarian
SNB-75 CNS = test system: SNB-75 CNS
KM12 colon = test system: KM12 colon
U251 CNS = test system: U251 CNS
ACHN renal = test system: ACHN renal
COLO 205 colon = test system: COLO 205 colon
SF-539 CNS = test system: SF-539 CNS
SF-268 CNS = test system: SF-268 CNS
UACC-257 melanoma = test system: UACC-257 melanoma
OVCAR-4 ovarian = test system: OVCAR-4 ovarian
MDA-MB-435 = test system: MDA-MB-435
SK-MEL-2 melanoma = test system: SK-MEL-2 melanoma
HOP-62 NSCLC = test system: HOP-62 NSCLC
786-0 renal = test system: 786-0 renal
TK-10 renal = test system: TK-10 renal
HOP-92 NSCLC = test system: HOP-92 NSCLC
CCRF-CEM leukemia = test system: CCRF-CEM leukemia
SK-MEL-28 melanoma = test system: SK-MEL-28 melanoma
RPMI-8226 leukemia = test system: RPMI-8226 leukemia
A498 renal = test system: A498 renal
NCI-H23 lung = test system: NCI-H23 lung
RXF 393 renal = test system: RXF 393 renal
MOLT-4 leukemia = test system: MOLT-4 leukemia
SK-OV-3 ovarian = test system: SK-OV-3 ovarian

`S=C(NCc1ccc2c(c1)OCO2)N1CCN(c2ncnc3c2oc2ccccc23)CC1` was tested, and the GI50 (T-47D breast) was 2.3 µM, the TGI (T-47D breast) was over 100 µM and the GI50 (OVCAR-5 ovarian) was over 100 µM. The TGI (OVCAR-5 ovarian) was over 100 µM, the GI50 (HS 578T breast) was over 100 µM and the TGI (HS 578T breast) was over 100 µM. It also gave a GI50 (UACC-62 melanoma) of 14.1 µM, a TGI (UACC-62 melanoma) of over 100 µM and a GI50 (HCT-15 colon) of over 100 µM. For the same compound, the TGI (HCT-15 colon) was over 100 µM, the GI50 (DU-145 prostate) was over 100 µM and the TGI (DU-145 prostate) was over 100 µM. For the same compound, the GI50 (A549 NSCLC) was 7.24 µM, the TGI (A549 NSCLC) was over 100 µM and the GI50 (NCI/ADR-RES ovarian) was 4.69 µM. The TGI (NCI/ADR-RES ovarian) was over 100 µM, the GI50 (NCI-H460 lung) was 6.85 µM and the TGI (NCI-H460 lung) was over 100 µM. The GI50 (LOX IMVI melanoma) was over 100 µM, the TGI (LOX IMVI melanoma) was over 100 µM and the GI50 (NCI-H522 lung) was 24 µM. It also gave a TGI (NCI-H522 lung) of over 100 µM, a GI50 (OVCAR-3 ovarian) of 25.2 µM and a TGI (OVCAR-3 ovarian) of over 100 µM. For the same compound, the GI50 (HT29 colon) was 18 µM, the TGI (HT29 colon) was over 100 µM and the GI50 (MCF7 breast) was 4.83 µM. For the same compound, the TGI (MCF7 breast) was over 100 µM, the GI50 (SN12C renal) was over 100 µM and the TGI (SN12C renal) was over 100 µM. It also gave a GI50 (EKVX NSCLC) of 3.5 µM, a TGI (EKVX NSCLC) of over 100 µM and a GI50 (SW-620 colon) of over 100 µM. The TGI (SW-620 colon) was over 100 µM, the GI50 (HCC-2998 colon) was over 100 µM and the TGI (HCC-2998 colon) was over 100 µM. It also gave a GI50 (SF-295 CNS) of 5.38 µM, a TGI (SF-295 CNS) of over 100 µM and a GI50 (BT-549 breast) of 26.9 µM. For the same compound, the TGI (BT-549 breast) was over 100 µM, the GI50 (MALME-3M melanoma) was over 100 µM and the TGI (MALME-3M melanoma) was over 100 µM. For the same compound, the GI50 (SNB-19 CNS) was over 100 µM, the TGI (SNB-19 CNS) was over 100 µM and the GI50 (UO-31 renal) was over 21.7 µM. It also gave a TGI (UO-31 renal) of over 100 µM, a GI50 (NCI-H226 lung) of 3.25 µM and a TGI (NCI-H226 lung) of over 100 µM. The GI50 (CAKI-1 renal) was 5.93 µM, the TGI (CAKI-1 renal) was over 100 µM and the GI50 (M14 melanoma) was over 71.4 µM. The TGI (M14 melanoma) was over 100 µM, the GI50 (SK-MEL-5 melanoma) was 0.575 µM and the TGI (SK-MEL-5 melanoma) was 3.28 µM. The GI50 (HCT-116 colon) was 3.68 µM, the TGI (HCT-116 colon) was over 100 µM and the GI50 (PC-3 prostate) was 6.88 µM. For the same compound, the TGI (PC-3 prostate) was over 100 µM, the GI50 (K-562 leukemia) was 3.6 µM and the TGI (K-562 leukemia) was over 100 µM. It also gave a GI50 (HL-60(TB) leukemia) of 4.87 µM, a TGI (HL-60(TB) leukemia) of over 95.4 µM and a GI50 (IGROV1 ovarian) of over 100 µM. For the same compound, the TGI (IGROV1 ovarian) was over 100 µM, the GI50 (MDA-MB-231 breast) was over 100 µM and the TGI (MDA-MB-231 breast) was over 100 µM. The GI50 (SR leukemia) was 3.7 µM, the TGI (SR leukemia) was over 100 µM and the GI50 (OVCAR-8 ovarian) was 5.43 µM. It also gave a TGI (OVCAR-8 ovarian) of over 100 µM, a GI50 (SNB-75 CNS) of over 100 µM and a TGI (SNB-75 CNS) of over 100 µM. For the same compound, the GI50 (KM12 colon) was 36.7 µM, the TGI (KM12 colon) was over 100 µM and the GI50 (U251 CNS) was 27.2 µM. For the same compound, the TGI (U251 CNS) was over 100 µM, the GI50 (ACHN renal) was over 63.3 µM and the TGI (ACHN renal) was over 100 µM. It also gave a GI50 (COLO 205 colon) of 66.1 µM, a TGI (COLO 205 colon) of over 100 µM and a GI50 (SF-539 CNS) of over 100 µM. For the same compound, the TGI (SF-539 CNS) was over 100 µM, the GI50 (SF-268 CNS) was over 100 µM and the TGI (SF-268 CNS) was over 100 µM. The GI50 (UACC-257 melanoma) was 1.71 µM, the TGI (UACC-257 melanoma) was over 33.7 µM and the GI50 (OVCAR-4 ovarian) was 0.451 µM. For the same compound, the TGI (OVCAR-4 ovarian) was over 100 µM, the GI50 (MDA-MB-435) was 8.16 µM and the TGI (MDA-MB-435) was over 100 µM. For the same compound, the GI50 (SK-MEL-2 melanoma) was 50.3 µM, the TGI (SK-MEL-2 melanoma) was over 100 µM and the GI50 (HOP-62 NSCLC) was over 100 µM. It also gave a TGI (HOP-62 NSCLC) of over 100 µM, a GI50 (786-0 renal) of over 100 µM and a TGI (786-0 renal) of over 100 µM. It also gave a GI50 (TK-10 renal) of 1.12 µM, a GI50 (HOP-92 NSCLC) of 14.3 µM and a TGI (HOP-92 NSCLC) of over 100 µM. It also gave a GI50 (CCRF-CEM leukemia) of over 82.7 µM, a TGI (CCRF-CEM leukemia) of over 100 µM and a GI50 (SK-MEL-28 melanoma) of over 100 µM. The TGI (SK-MEL-28 melanoma) was over 100 µM, the GI50 (RPMI-8226 leukemia) was 6.6 µM and the TGI (RPMI-8226 leukemia) was over 100 µM. It also gave a GI50 (A498 renal) of 4.42 µM, a TGI (A498 renal) of over 100 µM and a GI50 (NCI-H23 lung) of 5.34 µM. It also gave a TGI (NCI-H23 lung) of over 100 µM, a GI50 (RXF 393 renal) of over 100 µM and a TGI (RXF 393 renal) of over 100 µM. It also gave a GI50 (MOLT-4 leukemia) of 3.95 µM, a TGI (MOLT-4 leukemia) of over 100 µM and a GI50 (SK-OV-3 ovarian) of over 100 µM. For the same compound, the TGI (SK-OV-3 ovarian) was over 100 µM.
